Experiment: Radioactivity distribution in mouse body after intravenous administration of radioiodine labeled forms
Conditions: mouse, intravenous administration, mean (SD) of 3 to 5 mice
Procedure: Thereafter, 100 μl (0.5 to 1 μCi) of each labeled form was intravenously administered to each group consisting of three to five 5-week-old ddY male mice (25 to 30 g). 2, 10, 30, and 60 minutes after the intravenous administration, such mice were decapitated, and blood was collected. Thereafter, organs were excised, and the weight and radioactivity thereof were then measured.

## O=c1cc(-c2ccc(O)cc2)oc2ccc([125I])cc12 [[125I]Compound 20]
2 min after administration
  Distribution of radioactivity, Blood: 2.77 (0.43) % ID/g
  Distribution of radioactivity, Brain: 3.31 (0.32) % ID/g
  Distribution of radioactivity, Heart: 5.51 (0.71) % ID/g
  Distribution of radioactivity, Intestine: 3.12 (0.37) % ID/g
  Distribution of radioactivity, Kidney: 14.79 (2.59) % ID/g
  Distribution of radioactivity, Liver: 9.77 (1.89) % ID/g
  Distribution of radioactivity, Spleen: 3.92 (1.18) % ID/g
10 min after administration
  Distribution of radioactivity, Blood: 1.58 (0.18) % ID/g
  Distribution of radioactivity, Brain: 1.90 (0.07) % ID/g
  Distribution of radioactivity, Heart: 1.60 (0.18) % ID/g
  Distribution of radioactivity, Intestine: 11.26 (0.63) % ID/g
  Distribution of radioactivity, Kidney: 15.11 (2.00) % ID/g
  Distribution of radioactivity, Liver: 8.24 (0.50) % ID/g
  Distribution of radioactivity, Spleen: 1.55 (0.15) % ID/g
30 min after administration
  Distribution of radioactivity, Blood: 0.66 (0.03) % ID/g
  Distribution of radioactivity, Brain: 0.52 (0.03) % ID/g
  Distribution of radioactivity, Heart: 0.53 (0.04) % ID/g
  Distribution of radioactivity, Intestine: 22.01 (1.34) % ID/g
  Distribution of radioactivity, Kidney: 6.45 (0.84) % ID/g
  Distribution of radioactivity, Liver: 6.80 (0.86) % ID/g
  Distribution of radioactivity, Spleen: 0.56 (0.13) % ID/g
60 min after administration
  Distribution of radioactivity, Blood: 0.20 (0.02) % ID/g
  Distribution of radioactivity, Brain: 0.08 (0.02) % ID/g
  Distribution of radioactivity, Heart: 0.12 (0.02) % ID/g
  Distribution of radioactivity, Intestine: 27.28 (0.48) % ID/g
  Distribution of radioactivity, Kidney: 1.66 (0.62) % ID/g
  Distribution of radioactivity, Liver: 4.78 (1.09) % ID/g
  Distribution of radioactivity, Spleen: 0.17 (0.06) % ID/g

## COc1ccc(-c2cc(=O)c3cc([125I])ccc3o2)cc1 [[125I]Compound 19]
2 min after administration
  Distribution of radioactivity, Blood: 1.87 (0.21) % ID/g
  Distribution of radioactivity, Brain: 4.00 (0.18) % ID/g
  Distribution of radioactivity, Heart: 4.98 (0.41) % ID/g
  Distribution of radioactivity, Intestine: 3.52 (0.29) % ID/g
  Distribution of radioactivity, Kidney: 7.99 (1.08) % ID/g
  Distribution of radioactivity, Liver: 8.96 (1.48) % ID/g
  Distribution of radioactivity, Spleen: 2.70 (0.08) % ID/g
10 min after administration
  Distribution of radioactivity, Blood: 1.19 (0.17) % ID/g
  Distribution of radioactivity, Brain: 2.36 (0.33) % ID/g
  Distribution of radioactivity, Heart: 2.25 (0.40) % ID/g
  Distribution of radioactivity, Intestine: 14.39 (0.80) % ID/g
  Distribution of radioactivity, Kidney: 6.30 (1.02) % ID/g
  Distribution of radioactivity, Liver: 9.01 (0.97) % ID/g
  Distribution of radioactivity, Spleen: 1.38 (0.37) % ID/g
30 min after administration
  Distribution of radioactivity, Blood: 0.40 (0.01) % ID/g
  Distribution of radioactivity, Brain: 0.51 (0.07) % ID/g
  Distribution of radioactivity, Heart: 0.84 (0.14) % ID/g
  Distribution of radioactivity, Intestine: 22.51 (1.11) % ID/g
  Distribution of radioactivity, Kidney: 4.51 (1.59) % ID/g
  Distribution of radioactivity, Liver: 3.75 (0.47) % ID/g
  Distribution of radioactivity, Spleen: 0.55 (0.30) % ID/g
60 min after administration
  Distribution of radioactivity, Blood: 0.23 (0.09) % ID/g
  Distribution of radioactivity, Brain: 0.17 (0.05) % ID/g
  Distribution of radioactivity, Heart: 0.47 (0.22) % ID/g
  Distribution of radioactivity, Intestine: 30.05 (3.61) % ID/g
  Distribution of radioactivity, Kidney: 1.46 (1.12) % ID/g
  Distribution of radioactivity, Liver: 1.88 (0.61) % ID/g
  Distribution of radioactivity, Spleen: 3.67 (5.89) % ID/g

## CN(C)c1ccc(C=Cc2cc(=O)c3cc([125I])ccc3o2)cc1 [[125I]Compound 48]
2 min after administration
  Distribution of radioactivity, Blood: 14.54 (3.37) % ID/g
  Distribution of radioactivity, Brain: 0.70 (0.10) % ID/g
  Distribution of radioactivity, Heart: 8.89 (1.94) % ID/g
  Distribution of radioactivity, Intestine: 1.52 (0.09) % ID/g
  Distribution of radioactivity, Kidney: 9.04 (1.72) % ID/g
  Distribution of radioactivity, Liver: 20.56 (3.98) % ID/g
  Distribution of radioactivity, Spleen: 5.09 (0.75) % ID/g
10 min after administration
  Distribution of radioactivity, Blood: 3.50 (1.13) % ID/g
  Distribution of radioactivity, Brain: 0.72 (0.14) % ID/g
  Distribution of radioactivity, Heart: 4.00 (0.93) % ID/g
  Distribution of radioactivity, Intestine: 4.8 (0.74) % ID/g
  Distribution of radioactivity, Kidney: 5.58 (1.07) % ID/g
  Distribution of radioactivity, Liver: 15.09 (2.63) % ID/g
  Distribution of radioactivity, Spleen: 4.06 (0.66) % ID/g
30 min after administration
  Distribution of radioactivity, Blood: 1.5 (0.22) % ID/g
  Distribution of radioactivity, Brain: 1.02 (0.23) % ID/g
  Distribution of radioactivity, Heart: 2.36 (0.51) % ID/g
  Distribution of radioactivity, Intestine: 11.98 (1.26) % ID/g
  Distribution of radioactivity, Kidney: 5.16 (1.06) % ID/g
  Distribution of radioactivity, Liver: 12.82 (1.96) % ID/g
  Distribution of radioactivity, Spleen: 3.15 (0.70) % ID/g
60 min after administration
  Distribution of radioactivity, Blood: 0.80 (0.21) % ID/g
  Distribution of radioactivity, Brain: 0.77 (0.25) % ID/g
  Distribution of radioactivity, Heart: 1.42 (0.38) % ID/g
  Distribution of radioactivity, Intestine: 14.91 (4.18) % ID/g
  Distribution of radioactivity, Kidney: 3.94 (1.25) % ID/g
  Distribution of radioactivity, Liver: 8.79 (1.80) % ID/g
  Distribution of radioactivity, Spleen: 2.82 (0.36) % ID/g

## CNc1ccc(-c2cc(=O)c3cc([125I])ccc3o2)cc1 [[125I]Compound 10]
2 min after administration
  Distribution of radioactivity, Blood: 1.89 (0.28) % ID/g
  Distribution of radioactivity, Brain: 4.12 (0.15) % ID/g
  Distribution of radioactivity, Heart: 4.87 (0.66) % ID/g
  Distribution of radioactivity, Intestine: 3.10 (0.61) % ID/g
  Distribution of radioactivity, Kidney: 8.13 (1.28) % ID/g
  Distribution of radioactivity, Liver: 16.28 (0.90) % ID/g
  Distribution of radioactivity, Spleen: 2.57 (1.54) % ID/g
10 min after administration
  Distribution of radioactivity, Blood: 1.39 (0.10) % ID/g
  Distribution of radioactivity, Brain: 3.68 (0.18) % ID/g
  Distribution of radioactivity, Heart: 2.66 (0.12) % ID/g
  Distribution of radioactivity, Intestine: 7.91 (1.05) % ID/g
  Distribution of radioactivity, Kidney: 5.21 (0.44) % ID/g
  Distribution of radioactivity, Liver: 25.28 (0.31) % ID/g
  Distribution of radioactivity, Spleen: 2.31 (0.01) % ID/g
30 min after administration
  Distribution of radioactivity, Blood: 1.34 (0.07) % ID/g
  Distribution of radioactivity, Brain: 1.84 (0.12) % ID/g
  Distribution of radioactivity, Heart: 1.67 (0.14) % ID/g
  Distribution of radioactivity, Intestine: 12.84 (1.18) % ID/g
  Distribution of radioactivity, Kidney: 3.85 (0.33) % ID/g
  Distribution of radioactivity, Liver: 18.61 (1.81) % ID/g
  Distribution of radioactivity, Spleen: 1.76 (0.23) % ID/g
60 min after administration
  Distribution of radioactivity, Blood: 1.50 (0.09) % ID/g
  Distribution of radioactivity, Brain: 1.19 (0.04) % ID/g
  Distribution of radioactivity, Heart: 1.28 (0.12) % ID/g
  Distribution of radioactivity, Intestine: 21.48 (3.17) % ID/g
  Distribution of radioactivity, Kidney: 3.05 (0.25) % ID/g
  Distribution of radioactivity, Liver: 15.14 (0.89) % ID/g
  Distribution of radioactivity, Spleen: 1.52 (0.29) % ID/g

## COc1cc(/C=C/C(=O)c2cccc([125I])c2)ccc1O [[125I]Compound 31]
2 min after administration
  Distribution of radioactivity, Blood: 4.90 (0.52) % ID/g
  Distribution of radioactivity, Brain: 2.52 (0.20) % ID/g
  Distribution of radioactivity, Heart: 5.58 (0.99) % ID/g
  Distribution of radioactivity, Intestine: 2.50 (0.31) % ID/g
  Distribution of radioactivity, Kidney: 11.99 (3.60) % ID/g
  Distribution of radioactivity, Liver: 15.71 (1.27) % ID/g
  Distribution of radioactivity, Spleen: 2.57 (0.42) % ID/g
10 min after administration
  Distribution of radioactivity, Blood: 3.80 (0.91) % ID/g
  Distribution of radioactivity, Brain: 1.28 (0.17) % ID/g
  Distribution of radioactivity, Heart: 2.88 (1.02) % ID/g
  Distribution of radioactivity, Intestine: 10.52 (1.82) % ID/g
  Distribution of radioactivity, Kidney: 9.16 (2.76) % ID/g
  Distribution of radioactivity, Liver: 18.55 (2.68) % ID/g
  Distribution of radioactivity, Spleen: 1.80 (0.30) % ID/g
30 min after administration
  Distribution of radioactivity, Blood: 1.84 (0.31) % ID/g
  Distribution of radioactivity, Brain: 0.40 (0.11) % ID/g
  Distribution of radioactivity, Heart: 1.44 (0.34) % ID/g
  Distribution of radioactivity, Intestine: 20.60 (6.13) % ID/g
  Distribution of radioactivity, Kidney: 5.00 (2.27) % ID/g
  Distribution of radioactivity, Liver: 7.67 (1.68) % ID/g
  Distribution of radioactivity, Spleen: 1.03 (0.04) % ID/g
60 min after administration
  Distribution of radioactivity, Blood: 1.15 (0.44) % ID/g
  Distribution of radioactivity, Brain: 0.35 (0.05) % ID/g
  Distribution of radioactivity, Heart: 1.38 (0.34) % ID/g
  Distribution of radioactivity, Intestine: 29.31 (3.26) % ID/g
  Distribution of radioactivity, Kidney: 4.31 (0.81) % ID/g
  Distribution of radioactivity, Liver: 4.05 (0.61) % ID/g
  Distribution of radioactivity, Spleen: 0.88 (0.15) % ID/g

Reference: US8192717B2, “Composition for diagnosing amyloid-related diseases” (Nagasaki University, priority 2004, dated 2012)
